Assay results from patent US20240059703A1 (AMGEN INC., priority 2021, published 2024).

What was measured:
[1] = test system: A549 (human lung carcinoma) cells; test: Cell Viability Assay (CellTiter-Glo), A549; type: cell-based
In short: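 After a 72 h exposure to serial compound dilutions at 37° C, luminescent ATP content was measured with CellTiter-Glo. The cells were A549 or MIA PaCa-2, seeded at 1.67E+04 cells/mL in RPMI 1640 with 10% serum. Signals were normalized to DMSO controls and IC50 fitted with a 4-parameter logistic model.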

[2] = test system: MIA PaCa-2 (human pancreatic carcinoma) cells; test: Cell Viability Assay (CellTiter-Glo), MIA PaCa-2; type: cell-based
Procedure: Serially-diluted compound or DMSO was added to the cells, and plates were incubated at 37° C., 5% CO2 for 72 h. Cell viability was measured using a CellTiter-Glo® Luminescent Cell Viability Assay kit (Promega) according to the manufacturer's protocol. The luminescence signal of treated samples was normalized to DMSO control, and data were analyzed using a 4-parameter logistic model to calculate IC50 values.

[3] = biological target: KRAS G12C (Homo sapiens (Human), UniProt P01116, C118A/G12C); test: 2 h coupled exchange assay; type: biochemical; conditions: Avg 2 h Coupled exchange IC50, 2 h compound pre-incubation
Chain of KRAS G12C (P01116 other isoform, or with tags, fused parts or gaps G12C/C118A): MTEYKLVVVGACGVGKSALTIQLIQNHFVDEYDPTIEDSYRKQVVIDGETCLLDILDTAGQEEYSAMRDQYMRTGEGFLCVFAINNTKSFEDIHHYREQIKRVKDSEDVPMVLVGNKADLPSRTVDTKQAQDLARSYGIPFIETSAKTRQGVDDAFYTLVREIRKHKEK
Procedure: The term “2 h coupled exchange assay” or “20 h coupled exchange assay” as used herein refers to the assay described in the Section entitled “BIOLOGICAL EVALUATION.”

[4] = SOS-mediated nucleotide exchange

Structure (SMILES)	IC50 ([1]; Homo sapiens, A549, 72 h)	IC50 ([2]; Homo sapiens, MIA PaCa-2, 72 h)	IC50 [3]	IC50 [3, 4]	IC50 ([1]; 72 h)	IC50 ([2]; 72 h)
C=CC(=O)N1CC2(CCN(c3nc4c(c(-c5c(C)ccc6cnn(C)c56)c3C)COC(C)(C)C4)C2)C1 (single isomer, unassigned) [Example 14-99, (P)-1-(6-(4-(1,6-dimethyl-1H-indazol-7-yl)-3,7,7-trimethyl-7,8-dihydro-5H-pyrano[4,3-b]pyridin-2-yl)-2,6-diazaspiro[3.4]octan-2-yl)-2-propen-1-one]	> 5 µM	0.08 µM	0.071 µM	–	–	–
C=CC(=O)N1CC2(CCN(c3nc4c(c(-c5cc(O)ccc5F)c3C#N)CCCC4)C2)C1 [Example 2-9, 4-(2-fluoro-5-hydroxyphenyl)-2-(2-(2-propenoyl)-2,6-diazaspiro[3.4]octan-6-yl)-5,6,7,8-tetrahydro-3-quinolinecarbonitrile]	6.12 µM	2.97 µM	–	0.41 µM	–	–
C=CC(=O)N1CC2(CCN(c3nc4c(c(-c5ccccc5Cl)c3C#N)CC[C@H](c3ccnn3C)C4)C2)C1 [Example 13-21, (7S)-4-(2-chlorophenyl)-7-(1-methyl-1H-pyrazol-5-yl)-2-(2-(2-propenoyl)-2,6-diazaspiro[3.4]octan-6-yl)-5,6,7,8-tetrahydro-3-quinolinecarbonitrile]	> 5 µM	0.615 µM	–	0.062 µM	–	–
C=CC(=O)N1CC2(CCN(c3cn4ccnc4c(-c4c(C)ccc5[nH]ncc45)c3C#N)C2)C1 [Example 1-5]	50 µM	1.63 µM	–	0.52 µM	–	–
C=CC(=O)N1CC2(CCN(c3nc4c(c(-c5ccccc5F)c3C#N)CC[C@@](C)(c3scnc3C)C4)C2)C1 [Example 23-13, (7R)-4-(2-fluorophenyl)-7-methyl-7-(4-methyl-1,3-thiazol-5-yl)-2-(2-(2-propenoyl)-2,6-diazaspiro[3.4]octan-6-yl)-5,6,7,8-tetrahydro-3-quinolinecarbonitrile]	> 5 µM	0.911 µM	0.039 µM	–	–	–
C=CC(=O)N1CC2(CCN(c3nc4c(c(-c5ccc(F)cc5)c3C#N)CCC(c3scnc3C)=C4)C2)C1 [Example 23-30, 4-(4-fluorophenyl)-7-(4-methyl-1,3-thiazol-5-yl)-2-(2-(2-propenoyl)-2,6-diazaspiro[3.4]octan-6-yl)-5,6-dihydro-3-quinolinecarbonitrile]	8.39 µM	1.95 µM	0.132 µM	–	–	–
C=CC(=O)N1CC2(CCN(c3nc4cc(-c5scnc5C)cnc4c(-c4ccccc4F)c3C#N)C2)C1 [Example 20-15, 4-(2-fluorophenyl)-7-(4-methyl-1,3-thiazol-5-yl)-2-(2-(2-propenoyl)-2,6-diazaspiro[3.4]octan-6-yl)-1,5-naphthyridine-3-carbonitrile]	> 5 µM	0.649 µM	0.116 µM	–	–	–
C=CC(=O)N1CC2(CCN(c3nc4c(c(-c5c(C)ccc6cn[nH]c56)c3C#N)COC(C)(C)C4)C2)C1 (single isomer, unassigned) [Example 14-81, (P)-7,7-dimethyl-4-(6-methyl-1H-indazol-7-yl)-2-(2-(2-propenoyl)-2,6-diazaspiro[3.4]octan-6-yl)-7,8-dihydro-5H-pyrano[4,3-b]pyridine-3-carbonitrile]	> 5 µM	0.092 µM	0.045 µM	–	–	–
C=CC(=O)N1CC2(CCN(c3nc4c(c(-c5c(C)ccc6c(Cl)c[nH]c56)c3C#N)COC(C)(C)C4)C2)C1 [Example 12-20, 4-(3-chloro-6-methyl-1H-indol-7-yl)-7,7-dimethyl-2-(2-(2-propenoyl)-2,6-diazaspiro[3.4]octan-6-yl)-7,8-dihydro-5H-pyrano[4,3-b]pyridine-3-carbonitrile]	> 5 µM	2.57 µM	–	0.105 µM	–	–
C=CC(=O)N1CC2(CCN(c3nc4cc(-c5scnc5CO)cnc4c(-c4ccccc4F)c3C#N)C2)C1 [Example 19-10, 4-(2-fluorophenyl)-7-(4-(hydroxymethyl)-1,3-thiazol-5-yl)-2-(2-(2-propenoyl)-2,6-diazaspiro[3.4]octan-6-yl)-1,5-naphthyridine-3-carbonitrile]	15.3 µM	1.13 µM	0.113 µM	–	–	–
C=CC(=O)N1CC2(CCN(c3nc4c(ccn4C)c(-c4c(C)ccc5[nH]ncc45)c3C#N)C2)C1 [Example 1-50, 1-methyl-4-(5-methyl-1H-indazol-4-yl)-6-(2-(2-propenoyl)-2,6-diazaspiro[3.4]octan-6-yl)-1H-pyrrolo[2,3-b]pyridine-5-carbonitrile]	> 5 µM	> 5 µM	–	0.498 µM	–	–
C=CC(=O)N1CC2(CCN(c3nc4cc(-c5scnc5C)ccc4c(-c4ccccc4Cl)c3C#N)C2)C1 [Example 20-1, 4-(2-chlorophenyl)-7-(4-methyl-1,3-thiazol-5-yl)-2-(2-(2-propenoyl)-2,6-diazaspiro[3.4]octan-6-yl)-3-quinolinecarbonitrile]	> 5 µM	1.56 µM	0.149 µM	–	–	–

The remaining lines, values ahead:

IC50 ([1]; Homo sapiens, A549, 72 h)	IC50 ([2]; Homo sapiens, MIA PaCa-2, 72 h)	IC50 [3]	IC50 [3, 4]	IC50 ([1]; 72 h)	IC50 ([2]; 72 h)	Structure (SMILES)
> 5 µM	0.976 µM	–	0.122 µM	–	–	C=CC(=O)N1CC2(CCN(c3nc4cc(-c5nccs5)cn4c(-c4c(C)ccc5[nH]ncc45)c3C#N)C2)C1 [Example 1-54]
–	–	0.128 µM	–	13 µM	3.42 µM	C=CC(=O)N1CC2(CCN(c3nc4c(c(-c5ccccc5C)c3C#N)CC[C@H](c3scnc3C)C4)C2)C1 (single isomer, unassigned) [Example 23-6]
> 5 µM	0.092 µM	–	0.02 µM	–	–	C=CC(=O)N1CC2(CCN(c3nc4c(c(-c5cc(O)cc(F)c5Cl)c3C#N)C[C@H]3C[C@@H]4C3(C)C)C2)C1 [Example 12-34, (1R,9R)-6-(2-chloro-3-fluoro-5-hydroxyphenyl)-10,10-dimethyl-4-(2-(2-propenoyl)-2,6-diazaspiro[3.4]octan-6-yl)-3-azatricyclo[7.1.1.0^2,7] undeca-2,4,6-triene-5-carbonitrile]
> 5 µM	0.024 µM	–	0.027 µM	–	–	C=CC(=O)N1CC2(CCN(c3nc4c(c(-c5c(C)c(C)cc6cnn(C)c56)c3C#N)COC(C)(C)C4)C2)C1 [Example 13-90, 7,7-dimethyl-2-(2-(2-propenoyl)-2,6-diazaspiro[3.4]octan-6-yl)-4-(1,5,6-trimethyl-1H-indazol-7-yl)-7,8-dihydro-5H-pyrano[4,3-b]pyridine-3-carbonitrile]
4.77 µM	2.07 µM	0.325 µM	–	–	–	C=CC(=O)N1CC2(CCN(c3nc4cc(-c5cncs5)ccc4c(-c4ccccc4F)c3C#N)C2)C1 [Example 20-19, 4-(2-fluorophenyl)-2-(2-(2-propenoyl)-2,6-diazaspiro[3.4]octan-6-yl)-7-(1,3-thiazol-5-yl)-3-quinolinecarbonitrile]
> 5 µM	0.155 µM	–	0.064 µM	–	–	C=CC(=O)N1CC2(CCN(c3nc4c(c(-c5ccc(F)c6sc(N)nc56)c3C)CCC(C)(C)C4)C2)C1 (single isomer, unassigned) [Example 2-17]
3.41 µM	0.779 µM	0.109 µM	–	–	–	C=CC(=O)N1CC2(CCN(c3nc4c(c(-c5ccccc5F)c3C#N)CCC(c3scnc3COC)=C4)C2)C1 [Example 23-52, 4-(2-fluorophenyl)-7-(4-(methoxymethyl)-1,3-thiazol-5-yl)-2-(2-(2-propenoyl)-2,6-diazaspiro[3.4]octan-6-yl)-5,6-dihydro-3-quinolinecarbonitrile]
2.38 µM	0.459 µM	0.113 µM	–	–	–	C=CC(=O)N1CC2(CCN(c3nc4cc(-c5c(C)nn(C)c5C)ccc4c(-c4ccccc4Cl)c3C#N)C2)C1 [Example 14-46, 4-(2-chlorophenyl)-2-(2-(2-propenoyl)-2,6-diazaspiro[3.4]octan-6-yl)-7-(1,3,5-trimethyl-1H-pyrazol-4-yl)-3-quinolinecarbonitrile]
> 5 µM	0.381 µM	0.26 µM	–	–	–	C=CC(=O)N1CC2(CCN(c3nc4c(c(-c5cccc6cc(O)ccc56)c3C)CCN(C(C)=O)C4)C2)C1 [Example 18-10, 1-(6-(7-acetyl-4-(6-hydroxy-1-naphthalenyl)-3-methyl-5,6,7,8-tetrahydro-1,7-naphthyridin-2-yl)-2,6-diazaspiro[3.4]octan-2-yl)-2-propen-1-one]
> 5 µM	2.55 µM	0.031 µM	–	–	–	C=CC(=O)N1CC2(C1)CN(c1nc3cc(OC)ccc3c(-c3c(C)ccc4[nH]ncc34)c1C#N)CC2(F)F [Example 14-20, 2-(8,8-difluoro-2-(2-propenoyl)-2,6-diazaspiro[3.4]octan-6-yl)-7-methoxy-4-(5-methyl-1H-indazol-4-yl)-3-quinolinecarbonitrile]
> 5 µM	0.101 µM	–	0.035 µM	–	–	C=CC(=O)N1CC2(CCN(c3nc4c(c(-c5c(C)c(C)cc6cnn(C)c56)c3C#N)CCC(C)(C)C4)C2)C1 [Example 13-89, 7,7-dimethyl-2-(2-(2-propenoyl)-2,6-diazaspiro[3.4]octan-6-yl)-4-(1,5,6-trimethyl-1H-indazol-7-yl)-5,6,7,8-tetrahydro-3-quinolinecarbonitrile]
> 5 µM	0.805 µM	0.189 µM	–	–	–	C=CC(=O)N1CC2(CCN(c3nc4c(c(-c5ccccc5F)c3C#N)CCN(c3ccnn3C)C4)C2)C1 [Example 21-2, 4-(2-fluorophenyl)-7-(1-methyl-1H-pyrazol-5-yl)-2-(2-(2-propenoyl)-2,6-diazaspiro[3.4]octan-6-yl)-5,6,7,8-tetrahydro-1,7-naphthyridine-3-carbonitrile]
